According to US20250289814A1, “COMPOUNDS AS PARP1 INHIBITIORS” (NINGBO NEWBAY TECHNOLOGY DEVELOPMENT CO., LTD., priority 2022, published 2025):
Read-outs that look alike come from different tables or passages of the source.

Tests used:
[1] = system: DLD1-BRCA2−/− cells; assay: Cell proliferation assay in DLD1-BRCA2−/− cell lines (CellTiter-Glo, 7 days); format: cell-based
Method: BRCA2 (−/−) cells cultured in RPMI 1640+10% FBS were harvested and diluted to a density of 1×10^4 cells/mL and 2×10^4 cells/mL, respectively. Cells (40 μL/well) were seeded into 384-well cell culture plates. Plates were covered and incubated at 37° C., 5% CO2 overnight prior to the addition of test compounds or vehicle. The plates were then incubated at 37° C., 5% CO2 for 7 days. On day 8, the plates were removed from incubator and equilibrated at room temperature for 15 minutes. CellTiter-Glo (40 μL, at 1:1 to culture medium) is added into each well and the plates were placed at room temperature for 30 min. Luminescence was measured using an Envision plate reader. The resultant data were analysed as follows; where LC is culture medium without cells:
% inhibition values for different test compound concentrations were calculated and fitted to a four parameter logistic plot in order to determine the IC50 value using XLfit

[2] = molecular target: Recombinant full length PARP1 (Homo sapiens (Human), UniProt P09874); assay: FP assay PARP1 (fluorescence anisotropy probe displacement); format: binding; conditions: 20 nM PARP1, 8 nM fluorescent probe, 4 h, room temperature
Sequence of Recombinant full length PARP1 (P09874 whole entry): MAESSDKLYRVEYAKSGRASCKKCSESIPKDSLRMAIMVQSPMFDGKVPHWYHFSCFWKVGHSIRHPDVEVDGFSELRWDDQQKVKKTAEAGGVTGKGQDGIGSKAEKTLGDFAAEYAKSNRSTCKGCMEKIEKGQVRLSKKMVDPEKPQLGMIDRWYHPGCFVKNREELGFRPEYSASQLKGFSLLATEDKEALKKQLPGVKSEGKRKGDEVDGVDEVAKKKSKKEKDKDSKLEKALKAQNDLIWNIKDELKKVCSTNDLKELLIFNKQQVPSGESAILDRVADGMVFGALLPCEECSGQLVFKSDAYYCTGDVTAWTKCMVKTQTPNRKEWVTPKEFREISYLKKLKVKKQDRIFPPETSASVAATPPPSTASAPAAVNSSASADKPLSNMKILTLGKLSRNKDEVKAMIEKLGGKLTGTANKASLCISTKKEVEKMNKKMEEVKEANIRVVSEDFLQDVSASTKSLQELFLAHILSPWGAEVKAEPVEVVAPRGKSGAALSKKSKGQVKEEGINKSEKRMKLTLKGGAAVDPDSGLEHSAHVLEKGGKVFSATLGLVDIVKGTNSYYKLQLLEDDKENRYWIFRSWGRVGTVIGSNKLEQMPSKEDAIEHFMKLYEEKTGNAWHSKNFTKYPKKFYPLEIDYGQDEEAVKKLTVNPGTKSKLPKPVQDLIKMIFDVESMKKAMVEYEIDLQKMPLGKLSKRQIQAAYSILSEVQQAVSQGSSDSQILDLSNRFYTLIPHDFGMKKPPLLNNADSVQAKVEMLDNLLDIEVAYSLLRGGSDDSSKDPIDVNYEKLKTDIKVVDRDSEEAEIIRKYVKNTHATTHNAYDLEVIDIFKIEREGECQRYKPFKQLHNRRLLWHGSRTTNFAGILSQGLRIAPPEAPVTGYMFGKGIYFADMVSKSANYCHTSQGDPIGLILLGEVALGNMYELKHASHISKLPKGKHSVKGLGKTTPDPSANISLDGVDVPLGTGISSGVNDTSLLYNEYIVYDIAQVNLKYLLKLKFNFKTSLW
Method: (§1) FP experiments were carried out at room temperature using no-binding black 384-well microplates. Recombinant full length PARP1 and PARP2 proteins produced in house were diluted to 20 nM and 60 nM, respectively, with assay buffer (50 mM Tris pH 8, 0.001% Triton X100, 10 mM MgCl2, and 150 mM NaCl) and incubated for 4 h with an equivalent volume of the 8 nM fluorescent probe diluted with assay buffer. Fluorescence anisotropy of the probe when bound to the proteins was measured in the presence of test compounds or solvent control and the effect on anisotropy determined. Polarization values were read using an Envision plate reader using excitation and emission wavelengths of 590 and 630 nm, respectively. All FP values are expressed as mP units. Inhibition ratio was calculated using readout (mP) following the equation as below: […]
(§2) % inhibition values for different test compound concentrations were calculated and fitted to a four parameter logistic plot in order to determine the IC50 value using XLfit.

[3] = molecular target: Recombinant full length PARP2 (Homo sapiens (Human), UniProt Q9UGN5); assay: FP assay PARP2 (fluorescence anisotropy probe displacement); format: binding; conditions: 60 nM PARP2, 8 nM fluorescent probe, 4 h, room temperature
Sequence of Recombinant full length PARP2 (Q9UGN5 whole entry): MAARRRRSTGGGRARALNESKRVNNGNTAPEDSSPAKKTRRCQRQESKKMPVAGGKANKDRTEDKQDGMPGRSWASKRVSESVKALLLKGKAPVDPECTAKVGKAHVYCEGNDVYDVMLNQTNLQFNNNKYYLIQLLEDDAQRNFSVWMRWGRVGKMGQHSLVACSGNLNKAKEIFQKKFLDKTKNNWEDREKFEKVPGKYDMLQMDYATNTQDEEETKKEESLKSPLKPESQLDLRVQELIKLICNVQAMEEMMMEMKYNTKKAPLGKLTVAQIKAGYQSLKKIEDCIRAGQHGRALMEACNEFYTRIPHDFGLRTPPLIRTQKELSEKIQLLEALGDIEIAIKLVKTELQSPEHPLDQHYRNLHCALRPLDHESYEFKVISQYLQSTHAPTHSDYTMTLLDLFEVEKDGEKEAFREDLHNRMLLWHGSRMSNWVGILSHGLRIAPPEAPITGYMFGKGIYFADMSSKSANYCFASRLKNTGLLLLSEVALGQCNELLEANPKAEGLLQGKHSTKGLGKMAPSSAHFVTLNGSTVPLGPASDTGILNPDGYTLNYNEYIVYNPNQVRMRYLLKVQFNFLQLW
Method: as §1, §2

[4] = Caco2 (A-B/B-A) permeability; format: in vitro ADME; conditions: human; for efflux ratio at 120 min, 5 μM: Caco-2, pH 7.4, PappB-A/PappA-B, read-out: Caco2 efflux ratio (ER); for Papp A→B at 120 min, 5 μM: Caco-2, pH 7.4, apical-to-basolateral, read-out: Caco2 A-B apparent permeability (Papp); for Papp A→B at 120 min, 5 μM / Papp B→A at 120 min, 5 μM: HBSS pH 7.4, 120 min, 37° C.; for Papp B→A at 120 min, 5 μM: Caco-2, pH 7.4, basolateral-to-apical, read-out: Caco2 B-A apparent permeability (Papp)
Method: The apical-to-basolateral (A-B) and basolateral-to-apical (B-A) transport of 5 μM test compounds in HBSS (10 mM HEPES, pH 7.4) was measured across Caco-2 cell monolayers (cells sourced from American Type Culture Collection, Manassas, Virgina). Duplicate incubations were performed at approximately 37° C. for 120 min, with functionality of the test system confirmed using 5 μM propranolol and digoxin as control compounds. Aliquots (50 μL) from both apical and basolateral wells were transferred into two fresh 96-well plates and quenched with acetonitrile solution containing analytical internal standards. Samples were vortexed mixed, centrifuged and a 100 μL aliquot of the resulting supernatant mixed with an equal volume of ultra-pure water prior to analysis by UPLC-MS/MS. The concentrations of test compound and control compounds in the incubation medium of donor and receiver compartments at the beginning and the end of the incubation period were used to calculate the apparent permeability (Papp) from A-B and B-A directions. The efflux ratio (ER) was expressed as PappB-A/PappA-B. The integrity of the cell monolayers after 2 hours incubation was confirmed using the marker reagent Lucifer yellow.

Row | Structure (SMILES) | IC50 ([1]; Homo sapiens, DLD-1, 168 h) [nM] | IC50 [2] [nM] | IC50 [3] [nM] | efflux ratio at 120 min, 5 μM [4] | Papp A→B at 120 min, 5 μM [4] [×10⁻⁶ cm/s] | Papp B→A at 120 min, 5 μM [4] [×10⁻⁶ cm/s] | IC50 [1] [nM]
1 | CCc1nc2ccc(CN3CC[C@@H](Oc4ccc(C(=O)NC)nc4)C3)cc2[nH]c1=O [Compound 28, (R)-5-((1-((2-ethyl-3-oxo-3,4-dihydroquinoxalin-6-yl)methyl)pyrrolidin-3-yl)oxy)-N-methylpicolinamide] | 57.6 | 9.3 | > 10000 | 5.03 | 6.32 | 31.8 | –
2 | CCc1nc2ccc(C(C)N3CC(Oc4ccc(C(=O)NC)nc4)C3)cc2[nH]c1=O (stereo not drawn) [Compound 20, 5-((1-(1-(2-ethyl-3-oxo-3,4-dihydroquinoxalin-6-yl)ethyl)azetidin-3-yl)oxy)-N-methylpicolinamide] | 38.2 | 14.8 | > 10000 | 2.16 | 11.8 | 25.4 | –
3 | CCc1cc2ncc(CN3C[C@@H](F)[C@@H](Oc4ccc(C(=O)NC)nc4)C3)cc2[nH]c1=O [Compound 8, 5-(((3S, 4R)-1-((7-ethyl-6-oxo-5,6-dihydro-1,5-naphthyridin-3-yl)methyl)-4-fluoropyrrolidin-3-yl)oxy)-N-methylpicolinamide] | 51.1 | 3.8 | > 10000 | 11.8 | 2.45 | 28.8 | –
4 | CCc1nc2ccc([C@H](C)N3CC(Oc4ccc(C(=O)NC)nc4)C3)cc2[nH]c1=O (single isomer, unassigned) [Compound 52, (enantiomer 1 or 2)-5-((1-(1-(2-ethyl-3-oxo-3,4-dihydroquinoxalin-6-yl)ethyl)azetidin-3-yl)oxy)-N-methylpicolinamide] | 18.9 | 35.2 | > 10000 | 2.09 | 14.9 | 31.2 | –
5 | CCc1cc2ncc(CN3CCC(Nc4ccc(C(=O)NC)nc4)C3)cc2[nH]c1=O (stereo not drawn) [Compound 10, 5-((1-((7-ethyl-6-oxo-5,6-dihydro-1,5-naphthyridin-3-yl)methyl)pyrrolidin-3-yl)amino)-N-methylpicolinamide] | 11.5 | 3.1 | > 10000 | 39.1 | 0.57 | 22.4 | –
6 | CNC(=O)c1ccc(OC2CN(Cc3cnc4cc(C5CC5)c(=O)[nH]c4c3)C2)cn1 [Compound 6, 5-((1-((7-cyclopropyl-6-oxo-5,6-dihydro-1,5-naphthyridin-3-yl)methyl)azetidin-3-yl)oxy)-N-methylpicolinamide] | 62.1 | 7 | > 10000 | 9.29 | 3.32 | 30.8 | –
7 | CCc1cc2cnc(CN3CC[C@@H](Oc4ccc(C(=O)NC)nc4)C3)cc2[nH]c1=O [Compound 63, (R)-5-((1-((3-ethyl-2-oxo-1,2-dihydro-1,6-naphthyridin-7-yl)methyl)pyrrolidin-3-yl)oxy)-N-methylpicolinamide] | 5.4 | 7.03 | > 10000 | 7.96 | 5.35 | 42.5 | –
8 | CCc1cc2ncc(CN3CC(Oc4cnc(C(=O)NC)c(F)c4)C3)cc2[nH]c1=O [Compound 2, 5-((1-((7-ethyl-6-oxo-5,6-dihydro-1,5-naphthyridin-3-yl)methyl)azetidin-3-yl)oxy)-3-fluoro-N-methylpicolinamide] | 288 | 7.7 | > 10000 | 19.2 | 1.47 | 28.3 | –
9 | CCc1cc2ncc(C(C)N3CC(Oc4ccc(C(=O)NC)nc4)C3)cc2[nH]c1=O (racemic) [Compound 43, 5-((1-(1-(7-ethyl-6-oxo-5,6-dihydro-1,5-naphthyridin-3-yl)ethyl)azetidin-3-yl)oxy)-N-methylpicolinamide] | 12.2 | 5.9 | 3760 | – | – | – | –
10 | CCc1cc2ncc(CN3CCC(Oc4ccc(C(=O)NC)nc4)CC3)cc2[nH]c1=O [Compound 15, 5-((1-((7-ethyl-6-oxo-5,6-dihydro-1,5-naphthyridin-3-yl)methyl)piperidin-4-yl)oxy)-N-methylpicolinamide] | 195 | 18 | > 10000 | – | – | – | –
11 | CCc1cc2cnc([C@H](C)N3CC(Oc4ccc(C(=O)NC)nc4F)C3)cc2[nH]c1=O (single isomer, unassigned; enantiomer 1) [Compound 49, (enantiomer 1)-5-((1-(1-(3-ethyl-2-oxo-1,2-dihydro-1,6-naphthyridin-7-yl)ethyl)azetidin-3-yl)oxy)-6-fluoro-N-methylpicolinamide] | 5.7 | 14.5 | > 10000 | 8.64 | 3.46 | 29.9 | –
12 | CCc1cc2ncc(CN3CC[C@@H](Oc4ccc(C(=O)NC)nc4)C3)cc2[nH]c1=O [Compound 11, (R)-5-((1-((7-ethyl-6-oxo-5,6-dihydro-1,5-naphthyridin-3-yl)methyl)pyrrolidin-3-yl)oxy)-N-methylpicolinamide] | 6 | 4.8 | > 10000 | 9.69 | 4.13 | 40 | –
13 | CCc1cc2ncc([C@@H](C)N3CC(Oc4ccc(C(=O)NC)nc4F)C3)cc2[nH]c1=O (single isomer, unassigned; enantiomer 1) [Compound 45, (enantiomer 1)-5-((1-(1-(7-ethyl-6-oxo-5,6-dihydro-1,5-naphthyridin-3-yl)ethyl)azetidin-3-yl)oxy)-6-fluoro-N-methylpicolinamide] | – | 6.4 | 365 | 10.5 | 4.18 | 43.9 | 69.3
14 | CCc1cc2cnc(C(C)N3CC(Oc4ccc(C(=O)NC)nc4)C3)cc2[nH]c1=O (stereo not drawn) [Compound 51, 5-((1-(1-(3-ethyl-2-oxo-1,2-dihydro-1,6-naphthyridin-7-yl)ethyl)azetidin-3-yl)oxy)-N-methylpicolinamide] | 15.9 | 3.8 | 9610 | 6.4 | 5.4 | 34.6 | –
